Patent publication US6875581B1, “Method for screening of modulators of calcineurin activity” (Genopia Biomedical GmbH, priority 1998, dated 2005)

Key:
calcineurin [1] = test: Phosphotyrosine phosphatase assay with the substrate fluoresceinmonophosphate (FMP); assay type: biochemical; conditions: FMP as substrate, Lineweaver-Burk method
Procedure: 20. Calcineurin phosphatase assay—100 ng-4 μg recombinant calcineurin (calcineurin-A/B heterodimer), 100 ng-1 μg purified bovine brain calcineurin (Sigma Aldrich, Deisenhofen, Germany) or 100 μg homogenized tissue or cell extracts were used for classical calcineurin phosphatase assays. 100 μg cells or tissue were homogenized exactly as described (Stemmer et al., 1995). Partly purified and redox sensitive calcineurin was prepared by centrifugation at 14,000 rpm at 4° C. for 10 min (Eppendorf centrifuge 5417R) and the resulting supernatant was separated on a 1.5×10 cm Sephadex-G50 gelfiltration column as described (Stemmer et al., 1995), (Gold et al., 1997). […] After starting the enzymatic reaction with para-nitrophenylphosphate or fluoresceinmonophosphate the absorbance at 405 nm (para-nitrophenylphosphate) or fluorescence λ exication=485 nm; λ emission=520 nm) was monitored over 20 min at 30° C. using a UV/VIS/fluorescence microplate photometer (Biolumin 960 kinetic fluorescence/absorbance photometer, Molecular Dynamics). […] The protective effect of CuZnSOD against redox inactivation of calcineurin was determined by addition of 3 μg recombinant human wild-type or mutated CuZnSOD (constant CuZnSOD protein) or addition of 1.67 units of recombinant human wild-type or mutated CuZnSOD (constant CuZnSOD activity). […] The quantity of released phosphate was determined by a scintillation counting. […]

[2] = SOD assay (enzymatic activity of the CuZnSOD proteins); assay type: biochemical
Procedure: 8. SOD assay and activity staining—Enzymatic activity of the CuZnSOD proteins were either analyzed by 10% native gel electrophoresis and activity staining with nitrotetrazolium blue dye or by a quantitative spectrophotometrically assay according to published protocols (Beauchamp and Fridovich, 1971; Nebot et al., 1993). Protein yields were determined by the Bradford method (Protein assay kit, BioRAD, Hercules, Calif., USA). The concentration of purified CuZnSOD was determined spectrophotometrically using the extinction coefficient 265=1.84×10^4 M^−1 cm^−1.

calcineurin [3] = test: Protective effect of CuZnSOD against calcium induced redox inactivation of calcineurin (FK506 inhibitable RII-phosphopeptide activity); assay type: biochemical; conditions: 20 min vs 0 min; for Percentage of FK506 inhibitable RII-phosphopeptide activity after 20 min compared with the activity at 0 min, constant protein (3 μg): 3 μg CuZnSOD; for Percentage of FK506 inhibitable RII-phosphopeptide activity after 20 min compared with the activity at 0 min, constant activity (1.67 U): 1.67 U CuZnSOD
Procedure: 20. Calcineurin phosphatase assay—100 ng-4 μg recombinant calcineurin (calcineurin-A/B heterodimer), 100 ng-1 μg purified bovine brain calcineurin (Sigma Aldrich, Deisenhofen, Germany) or 100 μg homogenized tissue or cell extracts were used for classical calcineurin phosphatase assays. 100 μg cells or tissue were homogenized exactly as described (Stemmer et al., 1995). Partly purified and redox sensitive calcineurin was prepared by centrifugation at 14,000 rpm at 4° C. for 10 min (Eppendorf centrifuge 5417R) and the resulting supernatant was separated on a 1.5×10 cm Sephadex-G50 gelfiltration column as described (Stemmer et al., 1995), (Gold et al., 1997). Phosphotyrosine phosphatase assay was performed in microplates (100 μl total assay volume) either using 30 μM fluoresceinmonophosphate or 20 mM para-nitrophenylphosphate (Sigma Aldrich, Deisenhofen, Germany); 10 μl recombinant, purified or partly purified and assay buffer (25 mM Tris/HCl, pH 7; 2 mM CaCl2; 0.1 μM calmodulin; 25 μM FK506). After starting the enzymatic reaction with para-nitrophenylphosphate or fluoresceinmonophosphate the absorbance at 405 nm (para-nitrophenylphosphate) or fluorescence λ exication=485 nm; λ emission=520 nm) was monitored over 20 min at 30° C. using a UV/VIS/fluorescence microplate photometer (Biolumin 960 kinetic fluorescence/absorbance photometer, Molecular Dynamics). Phosphoserine phosphatase assay was performed as described (Hubbard and Klee, 1991), (Wang et al., 1996). […] The protective effect of CuZnSOD against redox inactivation of calcineurin was determined by addition of 3 μg recombinant human wild-type or mutated CuZnSOD (constant CuZnSOD protein) or addition of 1.67 units of recombinant human wild-type or mutated CuZnSOD (constant CuZnSOD activity). The reaction mixture was incubated for 2 min at 30° C. and stopped with 100 mM potassium phosphate/5% TCA. The reaction mixture was passed through a 0.5 ml ion-exchange column (Dowex; AG 50W-X8, BioRad) and the unbound phosphate eluted with 0.5 ml water. The quantity of released phosphate was determined by a scintillation counting.
Protective Effect of CuZnSOD of Calcium Induced Inactivation of Calcineurin
Percentage of FK506 inhibitable RII-phosphopeptide activity after 20 min compared with the activity at 0 min

[4] = system: calcineurin-A/B heterodimer; test: Laser fluctuation correlation spectroscopy, binding of fluorescence labeled CuZnSOD to calcineurin; design: species or system human; conditions: labeled CuZnSOD alone 41 kDa; expected 114 kDa
Description: 21. High Throughput BioAssay using recombinant calcineurin-A, recombinant calcineurin-B, calmodulin and recombinant CuZnSOD (analytical assay to identify activators or inhibitors of CuZnSOD/calcineurin interaction)—Laser fluctuation correlation spectroscopy (FCS) is a useful tool to quantify ligand—ligand interactions. The fluorescence F(t) of a optical well defined volume element which is excitated by a confocal laser is monitored as a function of time. The temporal autocorrelation of the fluorescence fluctuation δ F(t) yields the time scale of this dynamics and the average number of independent fluorophores in the probe volume. If the fluorescene fluctuation arise from diffusive motion and from fluorescence sensitive reaction, fluorescent fluctuation correlation function signal is approximated by the formula: GDR(τ)=GDiff(τ)*[1+A*exp(−kR*τ)] • τ=fluorescence correlation time • kR=apparent binding constant of the fluorescent labeled ligand • A=equilibrium coefficent dependent constant
If one measurement is performed with a solution only containing the fluorescent labeled ligand and a second measurement is performed with a solution containing the fluorescent labeled ligand and an interacting molecule the correlation function GDR can be separately analyzed and yields binding parameters of the interacting molecules. […]

Row | Compound | Vmax (calcineurin [1]) | Km (calcineurin [1]; Michaelis-Menten kinetic assumed) | CuZnSOD activity per mg protein [2] | Percentage of FK506 inhibitable RII-phosphopeptide activity after 20 min compared with the activity at 0 min, constant protein (3 μg) (calcineurin [3]) | Percentage of FK506 inhibitable RII-phosphopeptide activity after 20 min compared with the activity at 0 min, constant activity (1.67 U) (calcineurin [3]) | hydrodynamic radius / apparent molecular weight after addition of calcineurin-A/B heterodimer [4]
1 | O=C1OC2(c3ccc(O)cc3Oc3cc(OP(=O)(O)O)ccc32)c2ccccc21 (stereo not shown) [FMP, fluoresceinmonophosphate] | 400 µmol/min | 40 µM |  |  |  | 
2 | erythrocyte wild-type: purified human erythrocyte CuZnSOD (Sigma Aldrich) [reference compound] |  |  | (8330 U/mg) | 57 +/− 10% | 57 +/− 10% | 
3 | labeled CuZnSOD: recombinant CuZnSOD labeled with Oregon-Green-514 dye |  |  |  |  |  | 90 kDa
4 | recomb. mutation A4V: recombinant human CuZnSOD with substitution Ala-4 -> Val-4 |  |  | (1820 U/mg) | 22 +/− 27% | 8 +/− 3% | 
5 | recomb. mutation D90A: recombinant human CuZnSOD with substitution Asp-90 -> Ala-90 |  |  | (4590 U/mg) | 42 +/− 17% | 32 +/− 15% | 180.000 kDa
6 | recomb. mutation G93A: recombinant human CuZnSOD with substitution Gly-93 -> Ala-93 |  |  | (2130 U/mg) | 16 +/− 16% | 21 +/− 22% | 
7 | recombinant wild-type: recombinant human wild-type copper/zinc superoxide dismutase expressed in E. coli |  |  | (6380 U/mg) | 70 +/− 33% | 56 +/− 22% | 
